Measured values taken from US20090181392A1, “Transgenic Zebrafish Models for Neurodegenerative Diseases” (priority 2001, published 2009).
Entries after “also recorded” stand apart in the source; their conditions may differ.

Test system: dopaminergic neurons in zebrafish embryos
Assay: MPTP neurotoxicity and neuroprotection in zebrafish embryos, whole mount in situ hybridization with tyrosine hydroxylase probe
Assay type: in vivo, zebrafish (Danio rerio)
Details: for protection of neurons from MPTP-induced damage: coculture/coincubation of embryos with MPTP 10 μg/mL (43 μM)
Experimental: Mating pairs of adult zebrafish are placed in mating cages in the evening. The following morning, eggs are collected from the bottom of the mating cage and fertile embryos are placed in fresh fish water. At the end of the day, (embryos should be at the late gastrulation stage) phenylthiourea (PTU, Sigma-Aldrich) is added to a final concentration of 0.003% to prevent formation of pigment. At approximately 24 hours past fertilization (hpf), embryos are transferred to a 24 or 96 well plate for treatment in different concentrations of neurotoxins. Zebrafish embryos at this stage in development have completed much of their brain development and primary neurogenesis (Kimmel, et al., 1995). Motor neurons and some dopaminergic neurons are detectable at this stage (Eisen, et al., 1986; Guo, et al., 1999).
Initial concentrations of neurotoxins, including MPTP, hydroxydopamine, NMDA and THA (all purchased from Sigma-Aldrich), are determined based on the concentrations administered to goldfish (Goping, et al., 1995) and that used in cultured spinal cord explant experiments (Rothstein, et al., 1993; Annis and Vaugn, 1998). One of skill can adjust the concentrations depending on the level of neuronal damage desired and the time frame for neuronal damage.
After embryos are secured in plates with lids, plates are transferred to an incubator, preset to 28.5° C., the optimal temperature for zebrafish development. At different time points (1, 2, and 3 days after treatment), untreated embryos and embryos treated with MPTP or hydroxydopamine are fixed in 4% paraformaldehyde and prepared for in situ hybridization and/or immunohistochemistry.
In situ hybridization is performed as described by Thisse, et al. (1993). A plasmid containing a partial cDNA sequence encoding tyrosine hydroxylase was obtained from A. Rosenthal (Guo, et al., 1999). An antisense RNA probe to this gene can be synthesized by in vitro transcription, incorporating digoxygenin-labeled UTP (Roche Molecular Biochemicals). Embryos are hybridized with probe overnight at 70 degrees in 50% formamide buffer. After several washes, embryos are incubated overnight with an antibody to digoxygenin conjugated to alkaline phosphatase (Roche Molecular Biochemicals). […]
This study is performed essentially as described above, except that neuroprotective drugs (levodopa, deprenyl, and D-AP5, Sigma-Aldrich) are added to the embryo cultures at selected time points, both concurrently with neurotoxins and after neurotoxins have exerted their effects. Initial concentrations are determined based on that used in goldfish and tissue culture expeirments. Again, results are measured by examination of neurons in both a qualitative and quantitative manner, as described above. […]

SMILES | protection of neurons from MPTP-induced damage | protection of neurons from MPTP-induced damage (listed as deprenyl) | effect on non-dopaminergic cell populations (MPTP 10 μg/mL (43 μM), 5 day old embryo, tyrosine hydroxylase in situ hybridization (FIG. 2)) | effect on dopaminergic neurons / dopaminergic populations (MPTP 10 μg/mL (about 43 μM), embryos soaked, 5 day old embryo, tyrosine hydroxylase in situ hybridization (FIG. 2))
C#CCN(C)[C@H](C)Cc1ccccc1 [L-deprenyl] | MPTP-induced damage can be prevented | protects neurons |  | 
CN1CC=C(c2ccccc2)CC1 [MPTP, 1-methyl-4-phenyl-1,2,3,6-tetrahydropyridine] |  |  | unchanged | destroys dopaminergic populations; also recorded: significantly reduced
